The results in this text go back to patent publication US20050009061A1, “Anther-specific genes, their promoters, and uses of the same” (priority 2003, published 2005).

What all share (type): in vivo, rice (Nipponbare)
Holding throughout (conditions): mRNA in rice leaf sheaths after hormone treatment, Northern blotting (FIG. 2)

Assay [1] concerns eight types of tubulin (β-tubulin mRNA expression in rice leaf sheaths). Put plainly: Northern blotting of hormone specificity in rice leaf sheaths, all eight β-tubulins. As for the experimental part:
(§1) After treatment with each hormone, Northern blotting using specific probes was performed to confirm the mRNA expression in rice leaf sheaths. C: No treatment; GA: gibberellin; BL: brassinolide; ABA: abscisic acid; IAA: auxin; BA: cytokinin.
(§2) Rice (variety: Nipponbare) was grown under conditions of 600 μmol/m^2s white fluorescent light at 25° C., 75% humidity, and under a twelve-hour day/night cycle. Commercially available high-grade gibberellin (GA3), brassinolide (BL), auxin (IAA), cytokinin (BA), and abscisic acid (ABA) were used. RNA for RNA blotting analysis was extracted using Chomczynski and Sacchi's method (Chomczynski, P. and Sacchi, N., 1987, Anal. Biochem., 162: 156-159). An oligotex-dT-30 mRNA purification kit (Takara) was used to prepare mRNA for microarray analysis.
(§3) Primers were constructed specifically for eight types of β-tubulin, respectively. PCR was carried out using each β-tubulin EST clone as a template, and using a T3 primer and a primer specific to the 3′-untranslated region of each β-tubulin. […]
(§4) About 0.5 g of tissue samples rapid frozen in liquid nitrogen was ground to a powder using a mortar and a pastle, and total RNA was prepared by the methods of Chomczynski and Sacchi (Chomczynski, P. and Sacchi, N., 1987, Anal. Biochem., 162: 156-159). […] The expression amount was analyzed using image analysis apparatus (Amersham Pharmacia Biotech).

Assay [2] deals with OsTUB5. Description: Northern blotting of hormone specificity in rice leaf sheaths, OsTUB5. As for the experimental part: as §1, §2, §3, §4
Assay [3] concerns OsTUB6. Description: Northern blotting of hormone specificity in rice leaf sheaths, OsTUB6. As for the experimental part:
as §1, §2, §3, §4

Assay [4] concerns OsTUB7. Put plainly: Northern blotting of hormone specificity in rice leaf sheaths, OsTUB7. As for the experimental part:
as §1, §2, §3, §4

Regarding `CC1=CC(=O)CC(C)(C)[C@@]1(O)/C=C/C(C)=C\C(=O)O` [abscisic acid], in assay [1], the “expression of all eight types of tubulin” value is listed as “suppressed”.

For `CC(C)[C@H](C)[C@@H](O)[C@H](O)[C@@H](C)[C@H]1CC[C@H]2[C@@H]3COC(=O)[C@H]4C[C@H](O)[C@H](O)C[C@]4(C)[C@H]3CC[C@]12C` [brassinolide], the “expression of OsTUB5” value in assay [2] was “increased”. The “expression of OsTUB6” value in assay [3] is reported as “increased”. Moreover, the “expression of OsTUB7” value in assay [4] was “increased”.

On to gibberellin, for which the “expression of OsTUB5” value in assay [2] was “markedly increased”. In addition, the “expression of OsTUB6” value in assay [3] is “markedly increased”. For the same compound, in assay [4], the “expression of OsTUB7” value was “markedly increased”.
